# “And” between values parts separate entries of the source, which are not always exact repeats. Identical values can stand only once.
# Assays:
# EGFR L861Q = EGFR L861Q (Homo sapiens, UniProt P00533, L861Q); test: HTFR KINEASE-TK kit (Cisbio) inhibition of EGFR mutant L861Q; format: biochemical
# Method: (§1) Compound A13 was tested against EGFR mutants: (i) three exon 20 insertions: […], D770_N771insNPG, and A763_Y764insFQEA; and (ii) one point mutation: L861Q; using an HTFR KINEASE-TK kit (Cisbio) according to the manufacturer's protocol.
# EGFR A763_Y764insFQEA = EGFR A763_Y764insFQEA (Homo sapiens, UniProt P00533, INS763FQEA); test: HTFR KINEASE-TK kit (Cisbio) inhibition of EGFR mutant A763_Y764insFQEA; format: biochemical
# Method: as §1
# EGFR V769_D770insGE = EGFR V769_D770insGE (Homo sapiens, UniProt P00533, INS769GE); test: HTFR KINEASE-TK kit (Cisbio) inhibition of EGFR mutant V769_D770insGE; format: biochemical
# Method: as §1
# EGFR D770_N771insNPG = EGFR D770_N771insNPG (Homo sapiens, UniProt P00533, INS770NPG); test: HTFR KINEASE-TK kit (Cisbio) inhibition of EGFR mutant D770_N771insNPG; format: biochemical
# Method: as §1
# [1] = molecular target: T1, EGFR G719S in Ba/F3 cell lines (Homo sapiens, UniProt P00533, G719S); test: […]-GLO cell viability assay, Ba/F3 cells with EGFR G719S; format: cell-based
# T1 construct: expressed in transfected cells; host or cells: Ba/F3
# [2] = molecular target: T2, EGFR L861Q in Ba/F3 cell lines (Homo sapiens, UniProt P00533, L861Q); test: […]-GLO cell viability assay, Ba/F3 cells with EGFR L861Q; format: cell-based
# T2 construct: expressed in transfected cells; host or cells: Ba/F3
# [3] = molecular target: T3, EGFR A763_Y764insFQEA in Ba/F3 cell lines (Homo sapiens, UniProt P00533, INS763FQEA); test: […]-GLO cell viability assay, Ba/F3 cells with EGFR A763_Y764insFQEA; format: cell-based
# T3 construct: expressed in transfected cells; host or cells: Ba/F3
# [4] = molecular target: T4, EGFR V769_D770insASV in Ba/F3 cell lines (Homo sapiens, UniProt P00533, INS769ASV); test: […]-GLO cell viability assay, Ba/F3 cells with EGFR V769_D770insASV; format: cell-based
# T4 construct: expressed in transfected cells; host or cells: Ba/F3
# [5] = molecular target: T5, EGFR D770_N771insSVD in Ba/F3 cell lines (Homo sapiens, UniProt P00533, INS770SVD); test: […]-GLO cell viability assay, Ba/F3 cells with EGFR D770_N771insSVD; format: cell-based
# T5 construct: expressed in transfected cells; host or cells: Ba/F3
# [6] = molecular target: T6, EGFR H773_V774insNPH in Ba/F3 cell lines (Homo sapiens, UniProt P00533, INS773NPH); test: […]-GLO cell viability assay, Ba/F3 cells with EGFR H773_V774insNPH; format: cell-based
# T6 construct: expressed in transfected cells; host or cells: Ba/F3
# [7] = test system: LU0387 lung cancer PDX model; test: Antitumor activity in subcutaneous LU0387 lung cancer PDX xenograft mouse model; format: in vivo; settings: for TV (mm^3) on Day 0: Day 0 (randomization, baseline); for TV (mm^3) on Day 0 / RTV (relative tumor volume) / TV (mm^3) on Day 21: benzoate salt
# Method: Compound A13 as a single agent was evaluated for lung cancer treatment in a subcutaneous LU0387 lung cancer PDX model using female Balb/c nude mice. Tumor fragments from stock mice were harvested for inoculation into mice. Each mouse was inoculated subcutaneously in the right rear flank with a PDX model LU0387 tumor fragment (2-3 mm in diameter) for tumor development.
# The randomization started when the mean tumor size reached approximately 517.37 mm^3. Twenty-four mice were randomly allocated to 8 study groups, with 3 mice per group. The date of randomization was designated as Day 0.
# After tumor inoculation, the mice were checked daily for morbidity and mortality. The mice were checked for any effects of tumor growth and treatments on behavior such as mobility, food and water consumption, body weight gain/loss, eye/hair matting, and any abnormalities. Mortality and observed clinical signs were recorded for each individual mouse in detail.
# Tumor volumes (TV) were measured twice per week after randomization using a caliper and the volume was calculated using the formula: V=(L×W×W)/2, where V is tumor volume, L is tumor length (the longest tumor dimension), and W is tumor width (the longest tumor dimension perpendicular to L).
# Compound A13 was administered orally as a benzoate salt in a citrate/phosphate buffer at pH 4.0 at 20, 40, and 80 mg/kg once daily for 21 days. The results are summarized in Table 3, where RTV represents relative tumor volume.
# [8] = Pharmacokinetics in the xenograft mouse model, single oral dose; format: in vivo, Balb/c Mice; settings: 80 mg/kg single oral dose
# Method: Using the same xenograft mouse model, the pharmacokinetic (PK) parameters of compound A13 were determined at 80 mg/kg with a single oral dose. For each mouse, blood samples were collected at 0, 1, 2, 4, 8, 16, and 24 h after dosing.
# [9] = 20 mg/kg orally once daily for 21 days
# [10] = 40 mg/kg orally once daily for 21 days
# T6 sequence (P00533 with tags, fused parts or gaps INS773NPH): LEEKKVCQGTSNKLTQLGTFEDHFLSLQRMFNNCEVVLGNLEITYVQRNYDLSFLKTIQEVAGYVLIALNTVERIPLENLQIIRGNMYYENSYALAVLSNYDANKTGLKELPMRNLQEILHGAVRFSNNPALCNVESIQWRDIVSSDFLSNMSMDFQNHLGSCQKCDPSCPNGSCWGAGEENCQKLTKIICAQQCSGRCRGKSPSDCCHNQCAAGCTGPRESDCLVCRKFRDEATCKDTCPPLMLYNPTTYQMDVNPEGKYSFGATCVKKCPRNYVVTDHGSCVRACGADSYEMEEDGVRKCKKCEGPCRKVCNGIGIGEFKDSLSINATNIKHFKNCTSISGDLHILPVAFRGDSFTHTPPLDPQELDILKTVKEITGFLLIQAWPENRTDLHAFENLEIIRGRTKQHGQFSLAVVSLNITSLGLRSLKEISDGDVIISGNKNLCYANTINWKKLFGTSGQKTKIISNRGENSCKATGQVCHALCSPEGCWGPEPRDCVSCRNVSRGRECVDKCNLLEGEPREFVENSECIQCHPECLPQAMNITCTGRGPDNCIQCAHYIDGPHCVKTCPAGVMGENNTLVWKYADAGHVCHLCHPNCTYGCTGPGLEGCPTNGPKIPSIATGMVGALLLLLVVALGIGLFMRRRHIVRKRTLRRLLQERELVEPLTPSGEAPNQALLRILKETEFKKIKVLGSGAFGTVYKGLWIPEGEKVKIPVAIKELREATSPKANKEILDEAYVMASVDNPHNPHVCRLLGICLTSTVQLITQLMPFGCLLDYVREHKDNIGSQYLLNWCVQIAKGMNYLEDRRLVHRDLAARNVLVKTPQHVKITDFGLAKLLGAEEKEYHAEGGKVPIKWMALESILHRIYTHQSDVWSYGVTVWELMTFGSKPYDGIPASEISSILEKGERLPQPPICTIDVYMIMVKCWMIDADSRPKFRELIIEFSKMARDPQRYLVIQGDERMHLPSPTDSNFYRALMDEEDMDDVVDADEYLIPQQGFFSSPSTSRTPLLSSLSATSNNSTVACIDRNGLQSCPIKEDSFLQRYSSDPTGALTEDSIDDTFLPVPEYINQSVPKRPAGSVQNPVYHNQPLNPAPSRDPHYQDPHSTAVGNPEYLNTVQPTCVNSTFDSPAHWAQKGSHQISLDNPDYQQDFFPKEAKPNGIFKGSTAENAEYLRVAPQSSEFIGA
# Chain of EGFR A763_Y764insFQEA (P00533 with tags, fused parts or gaps INS763FQEA): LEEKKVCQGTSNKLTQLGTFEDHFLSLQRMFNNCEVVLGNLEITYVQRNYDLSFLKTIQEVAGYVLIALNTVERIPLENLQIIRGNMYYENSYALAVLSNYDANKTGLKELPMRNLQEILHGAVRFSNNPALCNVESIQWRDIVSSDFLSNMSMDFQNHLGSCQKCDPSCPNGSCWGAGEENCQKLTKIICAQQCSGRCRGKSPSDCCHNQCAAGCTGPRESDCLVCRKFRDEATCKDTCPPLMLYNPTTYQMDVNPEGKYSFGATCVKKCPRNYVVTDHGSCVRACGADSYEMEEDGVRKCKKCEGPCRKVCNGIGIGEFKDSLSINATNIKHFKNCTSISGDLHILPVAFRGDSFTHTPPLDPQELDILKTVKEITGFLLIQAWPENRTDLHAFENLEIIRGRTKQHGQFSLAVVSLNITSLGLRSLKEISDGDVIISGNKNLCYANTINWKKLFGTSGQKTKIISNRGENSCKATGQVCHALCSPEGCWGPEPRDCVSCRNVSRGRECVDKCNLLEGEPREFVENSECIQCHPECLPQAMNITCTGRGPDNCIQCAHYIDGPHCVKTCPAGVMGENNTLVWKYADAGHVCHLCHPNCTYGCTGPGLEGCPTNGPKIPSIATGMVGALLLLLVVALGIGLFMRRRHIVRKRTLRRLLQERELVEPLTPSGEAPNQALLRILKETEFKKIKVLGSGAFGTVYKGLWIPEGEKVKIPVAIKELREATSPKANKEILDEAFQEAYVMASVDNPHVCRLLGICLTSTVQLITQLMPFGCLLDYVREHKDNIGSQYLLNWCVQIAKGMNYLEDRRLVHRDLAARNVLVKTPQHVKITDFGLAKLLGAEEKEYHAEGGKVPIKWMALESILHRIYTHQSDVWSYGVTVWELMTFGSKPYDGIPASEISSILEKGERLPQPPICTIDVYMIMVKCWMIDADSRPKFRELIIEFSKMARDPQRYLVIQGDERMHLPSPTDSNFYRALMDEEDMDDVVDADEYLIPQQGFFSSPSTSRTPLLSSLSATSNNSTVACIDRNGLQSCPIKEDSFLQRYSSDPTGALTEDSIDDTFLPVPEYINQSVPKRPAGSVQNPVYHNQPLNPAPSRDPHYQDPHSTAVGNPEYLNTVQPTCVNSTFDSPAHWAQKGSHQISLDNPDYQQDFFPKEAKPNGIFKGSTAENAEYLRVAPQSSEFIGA
# T3 sequence (P00533 with tags, fused parts or gaps INS763FQEA): as above
# T4 sequence (P00533 with tags, fused parts or gaps INS769ASV): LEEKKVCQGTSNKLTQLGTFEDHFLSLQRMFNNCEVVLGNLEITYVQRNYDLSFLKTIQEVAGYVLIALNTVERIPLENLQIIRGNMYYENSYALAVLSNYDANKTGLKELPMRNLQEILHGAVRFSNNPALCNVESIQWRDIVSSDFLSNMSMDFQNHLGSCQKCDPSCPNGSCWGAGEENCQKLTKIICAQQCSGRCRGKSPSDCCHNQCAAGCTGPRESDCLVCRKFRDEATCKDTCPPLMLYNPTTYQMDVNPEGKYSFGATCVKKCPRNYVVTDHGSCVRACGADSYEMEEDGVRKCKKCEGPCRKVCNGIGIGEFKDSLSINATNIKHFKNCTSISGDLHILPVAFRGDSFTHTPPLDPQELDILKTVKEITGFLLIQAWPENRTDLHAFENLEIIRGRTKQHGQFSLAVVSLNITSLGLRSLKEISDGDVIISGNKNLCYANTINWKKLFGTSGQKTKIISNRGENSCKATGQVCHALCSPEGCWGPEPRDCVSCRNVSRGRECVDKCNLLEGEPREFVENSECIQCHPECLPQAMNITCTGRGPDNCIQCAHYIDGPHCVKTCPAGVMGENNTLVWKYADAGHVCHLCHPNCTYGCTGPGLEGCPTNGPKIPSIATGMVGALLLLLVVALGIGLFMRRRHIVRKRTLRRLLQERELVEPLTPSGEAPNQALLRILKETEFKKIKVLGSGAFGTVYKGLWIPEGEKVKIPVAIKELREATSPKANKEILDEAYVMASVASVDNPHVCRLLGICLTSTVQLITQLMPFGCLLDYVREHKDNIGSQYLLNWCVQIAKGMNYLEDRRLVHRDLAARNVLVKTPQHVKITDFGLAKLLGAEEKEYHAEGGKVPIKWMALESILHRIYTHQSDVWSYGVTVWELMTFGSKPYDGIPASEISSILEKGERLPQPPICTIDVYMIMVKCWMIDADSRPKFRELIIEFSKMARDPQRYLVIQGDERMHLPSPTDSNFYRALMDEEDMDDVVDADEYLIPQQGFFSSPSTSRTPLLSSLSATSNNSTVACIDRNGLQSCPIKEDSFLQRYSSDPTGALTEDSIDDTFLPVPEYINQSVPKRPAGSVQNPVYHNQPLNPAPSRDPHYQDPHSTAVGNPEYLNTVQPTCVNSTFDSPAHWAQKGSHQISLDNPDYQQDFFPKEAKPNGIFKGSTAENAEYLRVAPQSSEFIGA
smiles,measurement,setting,value
"C=CC(=O)Nc1cc(Nc2nccc(-c3cnc4c(C)cccn34)n2)c(OC)cc1N(C)CCN(C)C [A13, N-(2-((2-(dimethylamino)ethyl)(methyl)amino)-4-methoxy-5-((4-(8-methylimidazo[1,2-a]-pyridin-3-yl)pyrimidin-2-yl)amino)phenyl)acrylamide]",IC50,EGFR L861Q,0.36 nM
same,IC50,EGFR A763_Y764insFQEA,0.73 nM
same,IC50,EGFR V769_D770insGE,0.62 nM
same,IC50,EGFR D770_N771insNPG,0.42 nM
same,IC50,[1],2 nM
same,IC50,[2],5 nM
same,IC50,[3],4 nM
same,IC50,[4],73 nM
same,IC50,[5],29 nM
same,IC50,[6],62 nM
same,TV (mm^3) on Day 0,[7]; 20 mg/kg group,86 ± 6 mm^3
same,RTV (relative tumor volume),[7]; [9],517 ± 61
same,TV (mm^3) on Day 21,[7]; [9],602 ± 67 mm^3
same,TV (mm^3) on Day 0,[7]; 40 mg/kg group,89 ± 6 mm^3
same,RTV (relative tumor volume),[7]; [10],281
same,TV (mm^3) on Day 21,[7]; [10],370 ± 31 mm^3
same,TGI (tumor growth inhibition),"[7]; 40 mg/kg orally once daily for 21 days, vs. vehicle control (P=0.016)",61%
same,TV (mm^3) on Day 0,[7]; 80 mg/kg group,86 mm^3 and 86 ± 6 mm^3
same,TV (mm^3) on Day 21,[7]; 80 mg/kg orally once daily for 21 days,36 mm^3 and 36 ± 9 mm^3
same,TGI (tumor growth inhibition),"[7]; 80 mg/kg orally once daily for 21 days, vs. vehicle control (P<0.001)",107%
same,Tolerability,"[7]; 20, 40, and 80 mg/kg orally once daily for 21 days in tumor-bearing mice",well tolerated
same,CLz,[8],21.2 ± 1.8 L/h/kg
same,Vz,[8],52 ± 17 L/kg
same,Cmax,"[8]; Balb/c, mouse, blood",1.38 ± 0.432 µg/mL
same,half-life,"[8]; Balb/c, mouse, blood",1.7 ± 0.6 h
same,AUC(0-t),"[8]; Balb/c, mouse, blood, 0-24 h",3.6 ± 0.273 µg·h/mL

# Reference: patent US20240226101A1, “PYRIMIDINYLAMINOBENZENES FOR LUNG CANCER TREATMENT” (Suzhou Puhe BioPharma Co., LTD., priority 2021, published 2024)
